Laboratory results from US11866433B2, “Diarylthiohydantoin compound as androgen receptor antagonist” (CHIA TAI TIANQING PHARMACEUTICAL GROUP CO., LTD., priority 2017, dated 2024).

molecular target: T1, androgen receptor (AR) (Homo sapiens, UniProt P10275); assay: Antagonism of compounds on nuclear translocation of androgen receptor (PathHunter NHR cell lines); format: cell-based; settings: antagonist mode, agonist 6a-Fluorotestosterone 0.06 μM (EC80)
T1 sequence (P10275 1-920): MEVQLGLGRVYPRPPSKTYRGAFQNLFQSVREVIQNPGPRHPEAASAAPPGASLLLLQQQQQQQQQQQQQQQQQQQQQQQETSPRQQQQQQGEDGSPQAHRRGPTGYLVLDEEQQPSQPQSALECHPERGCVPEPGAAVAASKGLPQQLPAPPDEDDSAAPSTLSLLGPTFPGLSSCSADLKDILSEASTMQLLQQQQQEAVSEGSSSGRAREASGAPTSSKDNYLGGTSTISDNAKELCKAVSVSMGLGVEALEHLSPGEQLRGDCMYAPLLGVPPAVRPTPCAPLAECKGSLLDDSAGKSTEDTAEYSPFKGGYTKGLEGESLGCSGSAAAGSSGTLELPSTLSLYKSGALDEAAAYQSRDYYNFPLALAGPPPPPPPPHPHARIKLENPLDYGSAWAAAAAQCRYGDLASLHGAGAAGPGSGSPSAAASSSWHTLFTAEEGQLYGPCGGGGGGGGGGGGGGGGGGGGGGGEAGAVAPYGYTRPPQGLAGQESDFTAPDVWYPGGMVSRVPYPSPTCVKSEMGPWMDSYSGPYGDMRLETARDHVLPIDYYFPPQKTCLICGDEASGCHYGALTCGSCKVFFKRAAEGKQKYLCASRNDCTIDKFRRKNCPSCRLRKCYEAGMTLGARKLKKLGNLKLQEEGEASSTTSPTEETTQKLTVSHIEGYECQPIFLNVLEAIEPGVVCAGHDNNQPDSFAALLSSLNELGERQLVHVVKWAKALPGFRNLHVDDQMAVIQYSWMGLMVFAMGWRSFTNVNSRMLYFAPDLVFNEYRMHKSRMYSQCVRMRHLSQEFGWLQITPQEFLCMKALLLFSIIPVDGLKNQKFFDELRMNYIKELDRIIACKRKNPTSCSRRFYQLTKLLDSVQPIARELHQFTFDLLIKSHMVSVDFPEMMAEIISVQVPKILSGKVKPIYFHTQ
Experimental: Example 75 Test of Antagonism of Compounds on Nuclear Translocation of Androgen Receptor (AR)
1. PathHunter NHR cell lines were recovered and cultured for amplification.
2. The cells were inoculated onto a 384-well plate prior to testing, and incubated at 37° C. The serum for culture was filtered with charcoal-dextran to reduce the hormone level therein.
3. In the detection of the antagonistic function, a compound was added to the cells and incubated for 60 min. The working concentration of the test compound was diluted from 10 μM at a 3-fold concentration gradient, respectively including: […]. Then, an agonist 6a-Fluorotestosterone 0.06 μM (concentration: EC80, i.e., 80% agonistic compound concentration) was added, and the mixture was incubated at 37° C. or at room temperature for 3-16 h.
4. Signal detection: 12.5 μL or 15 μL (50%, v/v) PathHunter detection mixed solution (kit: DiscoverX product catalog number: 93-0001 series) was added, and incubated at room temperature for 1 h. The chemiluminescent signal was read with a PerkinElmer Envision™ instrument.
5. Data analysis: The compound activity was analyzed with CBIS data analysis software (ChemInnovation, CA). The calculation formula of the inhibition percent of the antagonist is as follows: IC50 inhibition ratio (%)=[…]×(1−(average RLU value of the test compound−average RLU value of the blank control group)/(average RLU value of EC80 control group−average RLU value of the blank control group)).

| Structure (SMILES) | IC50 |
| --- | --- |
| CNc1ncnc2cc(N3C(=S)N(c4ccc(C#N)c(C(F)(F)F)c4)C(=O)C3(C)C)ccc12 [Compound 1] | > 10 µM |
| CNC(=O)c1ccc(-n2c(=S)n(-c3ccc(C#N)c(C(F)(F)F)c3)c3ncccc32)cc1F [Compound 2] | > 10 µM |
| CNC(=O)c1ccc(-n2c(=S)n(-c3ccc(C#N)c(C(F)(F)F)c3)c3nccc(C)c32)cc1F [Compound 3] | 1.4 µM |
| CCN1CCOc2cc(N3C(=O)N(c4ccc(C#N)c(C(F)(F)F)c4)C(=O)C3(C)C)ccc2C1=O [Compound 4] | 2.19 µM |
| CC1(C)C(=O)N(c2ccc(C#N)c(C(F)(F)F)c2)C(=S)N1c1ccc2c(=O)n(CC(F)(F)F)cnc2c1 [Compound 5] | 3.65 µM |
| CC1(C)C(=O)N(c2ccc(C#N)c(C(F)(F)F)c2)C(=S)N1c1ccc2c(=O)n(CC(F)(F)F)ncc2c1 [Compound 6] | 3.07 µM |
| CC1(C)C(=O)N(c2ccc(C#N)c(C(F)(F)F)c2)C(=S)N1c1ccc2c(cnn2C2COCC2O)c1 (stereo not drawn) [Compound 7] | 4.26 µM |
| CC1(C)C(=O)N(c2ccc(C#N)c(C(F)(F)F)c2)C(=S)N1c1ccc2nn(C3COCC3O)cc2c1 (stereo not drawn) [Compound 8] | 4.27 µM |
| Cc1nc(OCCO)c2cc(N3C(=S)N(c4ccc(C#N)c(C(F)(F)F)c4)C(=O)C3(C)C)ccc2n1 [Compound 9] | 5.35 µM |
| CC1(C)C(=O)N(c2ccc(C#N)c(C(F)(F)F)c2)C(=S)N1c1ccc2nc(C3CC3)nc(OCCO)c2c1 [Compound 11] | 1.14 µM |
| CC1(C)C(=O)N(c2ccc(C#N)c(C(F)(F)F)c2)C(=S)N1c1ccc2ncnc(OCCO)c2c1 [Compound 12] | 3.26 µM |
| CC1(C)C(=O)N(c2ccc(C#N)c(C(F)(F)F)c2)C(=S)N1c1cc(F)c2ncnc(OCCO)c2c1 [Compound 13] | 6.02 µM |
| CC1(C)C(=O)N(c2ccc(C#N)c(C(F)(F)F)c2)C(=S)N1c1ccc2nc(OCCO)ncc2c1 [Compound 14] | 4.9 µM |
| CC1(C)C(=O)N(c2ccc(C#N)c(C(F)(F)F)c2)C(=S)N1c1ccc2nc(C(F)F)nc(OCCO)c2c1 [Compound 15] | 1.12 µM |
| CNc1nc(OCCO)c2cc(N3C(=S)N(c4ccc(C#N)c(C(F)(F)F)c4)C(=O)C3(C)C)ccc2n1 [Compound 16] | 3.91 µM |
| CCc1nc(OCCO)c2cc(N3C(=S)N(c4ccc(C#N)c(C(F)(F)F)c4)C(=O)C34CCC4)ccc2n1 [Compound 17] | 0.65 µM |
| CC1(C)C(=O)N(c2ccc(C#N)c(C(F)(F)F)c2)C(=S)N1c1cc(F)c2nc(C3CC3)nc(OCCO)c2c1 [Compound 18] | 2.84 µM |
| CCc1nc(OC2CCOCC2)c2cc(N3C(=S)N(c4ccc(C#N)c(C(F)(F)F)c4)C(=O)C3(C)C)cc(F)c2n1 [Compound 19] | 1.86 µM |
| CCc1nc(OCCO)c2cc(N3C(=S)N(c4ccc(C#N)c(C(F)(F)F)c4)C(=O)C34CCC4)cc(F)c2n1 [Compound 20] | 1.56 µM |
| CC1(C)C(=O)N(c2ccc(C#N)c(C(F)(F)F)c2)C(=S)N1c1cc(F)c2nc(C(F)F)nc(OCCO)c2c1 [Compound 21] | 1.89 µM |
| CCc1nc(OCCCS(C)(=O)=O)c2cc(N3C(=S)N(c4ccc(C#N)c(C(F)(F)F)c4)C(=O)C3(C)C)cc(F)c2n1 [Compound 22] | 2.36 µM |
| CC1(C)C(=O)N(c2cnc(C#N)c(C(F)(F)F)c2)C(=S)N1c1cc(F)c2nc(C3CC3)nc(OCCO)c2c1 [Compound 23] | 1.15 µM |
| CCc1nc(OCCN(C)C)c2cc(N3C(=S)N(c4ccc(C#N)c(C(F)(F)F)c4)C(=O)C3(C)C)cc(F)c2n1 [Compound 24] | 3.1 µM |
| CCc1nc(OCCO)c2cc(N3C(=S)N(c4cnc(C#N)c(C(F)(F)F)c4)C(=O)C34CCC4)cc(F)c2n1 [Compound 25] | 1.22 µM |

| Structure (SMILES) | IC50 |
| --- | --- |
| CC1(C)C(=O)N(c2cnc(C#N)c(C(F)(F)F)c2)C(=S)N1c1cc(F)c2nc(C(F)F)nc(OCCO)c2c1 [Compound 26] | 1.71 µM |
| CCc1nc(OCC(=O)NC)c2cc(N3C(=S)N(c4ccc(C#N)c(C(F)(F)F)c4)C(=O)C3(C)C)cc(F)c2n1 [Compound 28] | 8.88 µM |
| CCc1nc(OCC2COC2)c2cc(N3C(=S)N(c4ccc(C#N)c(C(F)(F)F)c4)C(=O)C3(C)C)cc(F)c2n1 [Compound 29] | 0.83 µM |
| CCc1cc(=O)n2cc(N3C(=S)N(c4ccc(C#N)c(C(F)(F)F)c4)C(=O)C3(C)C)ccc2n1 [Compound 30] | 2.54 µM |
| CCc1nc2ccc(N3C(=S)N(c4ccc(C#N)c(C(F)(F)F)c4)C(=O)C3(C)C)cn2c(=O)c1OC [Compound 31] | 3.8 µM |
| CCc1nc(OCC(N)=O)c2cc(N3C(=S)N(c4ccc(C#N)c(C(F)(F)F)c4)C(=O)C3(C)C)cc(F)c2n1 [Compound 32] | 6.76 µM |
| CCc1nc2ccc(N3C(=S)N(c4ccc(C#N)c(C(F)(F)F)c4)C(=O)C3(C)C)cn2c(=O)c1O [Compound 33] | 9.58 µM |
| CCc1nc2c(F)cc(N3C(=S)N(c4ccc(C#N)c(C(F)(F)F)c4)C(=O)C3(C)C)cn2c(=O)c1OC [Compound 34] | 3.23 µM |
| CCc1nc(OCC2(O)CC2)c2cc(N3C(=S)N(c4ccc(C#N)c(C(F)(F)F)c4)C(=O)C3(C)C)cc(F)c2n1 [Compound 36] | 5.65 µM |
| CCc1nc2ccc(N3C(=S)N(c4ccc(C#N)c(C(F)(F)F)c4)C(=O)C3(C)C)cn2c(=O)c1OCCOC [Compound 37] | 4.47 µM |
| CCc1nc2ccc(N3C(=S)N(c4ccc(C#N)c(C(F)(F)F)c4)C(=O)C3(C)C)cn2c(=O)c1OCCO [Compound 38] | 3.58 µM |
| CCc1nc2c(F)cc(N3C(=S)N(c4ccc(C#N)c(C(F)(F)F)c4)C(=O)C3(C)C)cn2c(=O)c1O [Compound 39] | 5.95 µM |
| CCc1nc2c(F)cc(N3C(=S)N(c4ccc(C#N)c(C(F)(F)F)c4)C(=O)C3(C)C)cn2c(=O)c1OCCOC [Compound 40] | 2.15 µM |
| CCc1nc2c(F)cc(N3C(=S)N(c4ccc(C#N)c(C(F)(F)F)c4)C(=O)C3(C)C)cn2c(=O)c1OCCO [Compound 41] | 2.75 µM |
| CCc1nc2c(F)cc(N3C(=S)N(c4ccc(C#N)c(C(F)(F)F)c4)C(=O)C3(C)C)cn2c(=O)c1OCC(=O)NC [Compound 42] | 2.2 µM |
| CCc1nc2c(F)cc(N3C(=S)N(c4ccc(C#N)c(C(F)(F)F)c4)C(=O)C3(C)C)cn2c(=O)c1OCC(N)=O [Compound 43] | 3.5 µM |
| CCc1nc(OC2COC[C@H]2O)c2cc(N3C(=S)N(c4ccc(C#N)c(C(F)(F)F)c4)C(=O)C3(C)C)cc(F)c2n1 (stereo partly drawn) [Compound 44] | 3.76 µM |
| CCc1nc2c(F)cc(-n3c(=S)n(-c4ccc(C#N)c(C(F)(F)F)c4)c4nccc(C)c43)cc2c(=O)[nH]1 [Compound 45] | 2.64 µM |
| CCc1nc(OC2COC[C@@H]2O)c2cc(N3C(=S)N(c4ccc(C#N)c(C(F)(F)F)c4)C(=O)C3(C)C)cc(F)c2n1 (stereo partly drawn) [Compound 46] | 3.08 µM |
| CCc1nc2c(F)cc(N3C(=S)N(c4ccc(C#N)c(C(F)(F)F)c4)C(=O)C3(C)C)cn2c(=O)c1F [Compound 47] | 2.57 µM |
| CCc1nc(OCCO)c2cc(N3C(=S)N(c4ccc(C#N)c(C(F)F)c4)C(=O)C3(C)C)ccc2n1 [Compound 48] | 3.67 µM |
| CC(F)(F)c1nc(OCCO)c2cc(N3C(=S)N(c4ccc(C#N)c(C(F)(F)F)c4)C(=O)C3(C)C)cc(F)c2n1 [Compound 49] | 1.43 µM |
| CCc1nc(OCCO)c2cc(N3C(=S)N(c4ccc(C#N)c(C(F)F)c4)C(=O)C3(C)C)cc(F)c2n1 [Compound 50] | 3.45 µM |
| CCc1nc(-c2cn[nH]c2)c2cc(N3C(=S)N(c4ccc(C#N)c(C(F)(F)F)c4)C(=O)C3(C)C)cc(F)c2n1 [Compound 51] | 0.64 µM |
